Laboratory results from patent publication US5399588A, “Naphthalenylmethyl cycloalkenone acetic acids and analogs thereof useful as aldose reductase inhibitors” (American Home Products Corporation, priority 1993, dated 1995).

How the values were obtained:
[1] = target: T1, bovine lens aldose reductase (Bos taurus, UniProt P16116); assay: In vitro Inhibition of Aldose Reductase in the Bovine Lens; type: biochemical; settings: DL-glyceraldehyde as substrate; for inhibition at 0.04 µM: 4 × 10^-8 M; for inhibition at 10 µM: 10^-5 M; for inhibition at 1 µM: 10^-6 M
T1 construct: in the preparation of the enzyme from bovine lens; from tissue; host or cells: bovine lens
Procedure: II. In vitro Inhibition of Aldose Reductase in the Bovine Lens
The aldose reductase inhibiting effects of the compounds of formula (I) were also tested by employing an in vitro testing procedure similar to that described by S. Hayman and J. H. Kinoshita, J. Biol. Chem., 240, 877 (1965) wherein the ability of the invention compounds to inhibit bovine lens aldose reductase with DL-glyceraldehyde as the substrate was determined. In the present case the procedure of Hayman and Kinoshita was modified in that the final chromatography step was omitted in the preparation of the enzyme from bovine lens.

aldose reductase = assay: In vivo Inhibition of Aldose Reductase in Galactosemic Rats; set-up: species or system male rats, Sprague-Dawley strain; settings: four days, polyol accumulation
Source text: I. In vivo Inhibition of Aldose Reductase in Galactosemic Rats
The aldose reductase inhibiting property of the compounds of this invention and the utilization of the compounds in preventing, diminishing and alleviating diabetic complications are demonstrable in experiments using galactosemic rats, see Dvornik et al., Science, 182, 1146 (1973).
(a) Four or more groups of six male rats, 50-70 g, Sprague-Dawley strain, were used. The first group, the control group, was fed a mixture of laboratory chow (rodent Laboratory Chow, Purina) and glucose at 20% (w/w %) concentration. An untreated galactosemic group was fed a similar diet in which galactose was substituted for glucose. The third group was fed a diet prepared by mixing a given amount of the test compound with the galactose containing diet. The concentration of galactose in the diet of the treated groups was the same as that for the untreated galactosemic group.
(b) After four days, the animals were killed by euthanization. Both the lens and sciatic nerve were removed, weighed and stored frozen for polyol determination.
(c) The polyol determination was performed by a modification of the procedure of M. Kraml and L. Cosyns, Clin. Biochem., 2, 373 (1969). Only two minor reagent changes were made: (a) the rinsing mixture was an aqueous 5% (w/v) trichloroacetic acid solution and (b) the stock solution was prepared by dissolving 25 mg of dulcitol in 100 mL of an aqueous trichloroacetic acid solution. [N.B.: For each experiment the average value found in the tissue from rats fed the glucose diet was subtracted from the individual values found in the corresponding tissue in galactose-fed rats to obtain the amount of polyol accumulated].

[2] = 100 mg/kg/day in galactose-containing diet

In the case of `O=C(O)CC1=C(Cc2ccc3c(Br)cccc3c2)C(=O)CCC1` [Example 1, [2-(5-Bromo-naphthalen-2-ylmethyl)-3-oxo-cyclohex-1-enyl]-acetic acid], the inhibition at 0.04 µM [1] is reported as 78% and the “% Inhibition of aldose reductase” value (aldose reductase; [2]) is reported as 68%.
In the case of `COc1ccc2cc(CC3=C(CC(=O)O)CCCC3=O)ccc2c1Br` [Example 2, [2-(5-bromo-6-methoxy-naphthalen-2-ylmethyl)-3-oxocyclohex-1-enyl] acetic acid], the inhibition at 0.1 µM ([1]; 10^-7 M) is reported as 50% and the “% Inhibition of aldose reductase” value (aldose reductase; [2]) is reported as 71%.
For `O=C(O)CC1=C(Cc2ccc3c(Cl)cccc3c2)C(=O)CCC1` [Example 3, [2-(5-chloro-naphthalen-2-ylmethyl)-3-oxo-cyclohex-1-enyl]-acetic acid], the inhibition at 0.04 µM [1] was 79%, the “% Inhibition of aldose reductase” value (aldose reductase; 105 mg/kg/day in galactose-containing diet) was 52% and the “% Inhibition of aldose reductase” value (aldose reductase; 202 mg/kg/day in galactose-containing diet) was 73%.
`O=C(O)CC1=C(Cc2ccc3c(Cl)cccc3c2)C(=O)CC1` [Example 4, [2-(5-chloro-naphthalen-2-ylmethyl)-3-oxo-cyclopen-1-enyl]-acetic acid] was tested, and the inhibition at 0.04 µM [1] was 62% and the “% Inhibition of aldose reductase” value (aldose reductase; [2]) was 37%.
In the case of `COC(=O)NC(=O)CC1=C(Cc2ccc3c(Br)cccc3c2)C(=O)CCC1` [Example 5, [[2-(5-bromo-naphthalen-2-ylmethyl)-3-oxo-cyclohex-1-enyl]acetyl]carbamic acid methyl ester], the inhibition at 10 µM [1] is reported as 27% and the “% Inhibition of aldose reductase” value (aldose reductase; [2]) is reported as 45%.
`COC(=O)NC(=O)CC1=C(Cc2ccc3c(Cl)cccc3c2)C(=O)CC1` [Example 6, [2-[2-(5-chloro-naphthalen-2-ylmethyl)-3-oxo-cyclopent-1-enyl]-acetyl]carbamic acid methyl ester] gave an inhibition at 10 µM [1] of 19%.
In the case of `O=C(O)CC1=C(Cc2ccc3ccccc3c2)C(=O)CCC1` [Example 7, [2-(naphthalen-2-ylmethyl)-3-oxo-cyclohex-1-enyl]-acetic acid], the inhibition at 1 µM [1] is reported as 41%.
For `O=C(O)COC1=C(Cc2ccc3c(Cl)cccc3c2)C(=O)CCC1` [Example 8, [[2-(5-chloro-naphthalen-2-ylmethyl)-3-oxo-1-cyclohex-1-enyl]oxy]acetic acid], the inhibition at 0.04 µM [1] was 81%.
`O=C(O)COC1=C(Cc2ccc3ccccc3c2)C(=O)CCC1` [Example 9, [[2-(naphthalen-2-ylmethyl)-3-oxo-1-cyclohex-1-enyl]oxy]acetic acid] gave an inhibition at 1 µM [1] of 87%.
In the case of `O=C(O)COC1=C(Cc2ccc3c(Br)cccc3c2)C(=O)CCC1` [Example 10, [[2-(5-bromo-naphthalen-2-ylmethyl)-3-oxo-cyclohex-1-enyl]oxy]-acetic acid], the inhibition at 0.04 µM [1] is reported as 86%.
With `O=C(O)COC1=C(Cc2ccc3c(Cl)cccc3c2)C(=O)CC1` [Example 11, [[2-(5-chloro-naphthalen-2-ylmethyl)-3-oxo-cyclopent-1-enyl]oxy]-acetic acid] the inhibition at 0.04 µM [1] was 70%.
For `O=C(O)COC1=C(Cc2ccc3ccccc3c2)C(=O)CC1` [Example 12, [[2-(2-Naphthalen-2-ylmethyl)-3-oxo-cyclopent-1-enyl]oxy]-acetic acid], the inhibition at 1 µM [1] was 61%.
Molecule `COc1ccc2c(CC3=C(CC(=O)O)CCCC3=O)cccc2c1C(F)(F)F` [Example 13, [2-(6-methoxy-5-trifluoromethyl-naphthalen-1-ylmethyl)-3-oxo-cyclohex-1-enyl]-acetic acid] has an inhibition at 10 µM [1] of 51%.
Molecule `COc1ccc2c(CC3=C(CC(=O)O)CCC3=O)cccc2c1C(F)(F)F` [Example 14, [2-(6-Methoxy-5-trifluoromethyl-naphthalen-1-ylmethyl)-3-oxo-cyclopent-1-enyl]-acetic acid] has an inhibition at 10 µM [1] of 84%.
